# From PubChem BioAssay (NCI)
#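 Grown in 96-well plates, cells were treated for 48 hours with each compound at five concentrations. Insufficient inhibition: endpoint recorded as highest concentration tested. Definition used: TGI = concentration required for complete inhibition of growth.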
# Tests used:
# Assay in all cases: NCI tumour cell line growth inhibition, 48 h
# IGROV1 ovarian = test system: IGROV1 ovarian
# HS 578T breast = test system: HS 578T breast
# HL-60(TB) leukemia = test system: HL-60(TB) leukemia
# ACHN renal = test system: ACHN renal
# NCI-H23 lung = test system: NCI-H23 lung
# SK-OV-3 ovarian = test system: SK-OV-3 ovarian
# MCF7 breast = test system: MCF7 breast
# MDA-MB-435 = test system: MDA-MB-435
# UACC-257 melanoma = test system: UACC-257 melanoma
# HCC-2998 colon = test system: HCC-2998 colon
# NCI-H226 lung = test system: NCI-H226 lung
# OVCAR-3 ovarian = test system: OVCAR-3 ovarian
# NCI-H460 lung = test system: NCI-H460 lung
# HCT-15 colon = test system: HCT-15 colon
# CCRF-CEM leukemia = test system: CCRF-CEM leukemia
# A549 NSCLC = test system: A549 NSCLC
# NCI-H522 lung = test system: NCI-H522 lung
# SNB-19 CNS = test system: SNB-19 CNS
# SR leukemia = test system: SR leukemia
# HT29 colon = test system: HT29 colon
# K-562 leukemia = test system: K-562 leukemia
# HCT-116 colon = test system: HCT-116 colon
# SK-MEL-28 melanoma = test system: SK-MEL-28 melanoma
# SF-268 CNS = test system: SF-268 CNS
# KM12 colon = test system: KM12 colon
# SN12C renal = test system: SN12C renal
# OVCAR-5 ovarian = test system: OVCAR-5 ovarian
# RXF 393 renal = test system: RXF 393 renal
# NCI/ADR-RES ovarian = test system: NCI/ADR-RES ovarian
# PC-3 prostate = test system: PC-3 prostate
# HOP-92 NSCLC = test system: HOP-92 NSCLC
# HOP-62 NSCLC = test system: HOP-62 NSCLC
# MALME-3M melanoma = test system: MALME-3M melanoma
# U251 CNS = test system: U251 CNS
# 786-0 renal = test system: 786-0 renal
# OVCAR-4 ovarian = test system: OVCAR-4 ovarian
# MOLT-4 leukemia = test system: MOLT-4 leukemia
# RPMI-8226 leukemia = test system: RPMI-8226 leukemia
# EKVX NSCLC = test system: EKVX NSCLC
# SK-MEL-5 melanoma = test system: SK-MEL-5 melanoma
# COLO 205 colon = test system: COLO 205 colon
# SW-620 colon = test system: SW-620 colon
# DU-145 prostate = test system: DU-145 prostate
# SF-539 CNS = test system: SF-539 CNS
# MDA-N = test system: MDA-N
# M14 melanoma = test system: M14 melanoma
# MDA-MB-231 breast = test system: MDA-MB-231 breast
# T-47D breast = test system: T-47D breast
# TK-10 renal = test system: TK-10 renal
# UACC-62 melanoma = test system: UACC-62 melanoma
# OVCAR-8 ovarian = test system: OVCAR-8 ovarian
# SF-295 CNS = test system: SF-295 CNS
# BT-549 breast = test system: BT-549 breast
# SNB-75 CNS = test system: SNB-75 CNS
# A498 renal = test system: A498 renal
# LOX IMVI melanoma = test system: LOX IMVI melanoma
# CAKI-1 renal = test system: CAKI-1 renal
# SK-MEL-2 melanoma = test system: SK-MEL-2 melanoma
# UO-31 renal = test system: UO-31 renal
structure (smiles),measurement,setting,value
CCNC1=C(NC(=O)c2ccc(OC)cc2)C(=O)c2ccccc2C1=O,TGI,IGROV1 ovarian,> 100 µM
same,TGI,HS 578T breast,> 100 µM
same,TGI,HL-60(TB) leukemia,> 100 µM
same,TGI,ACHN renal,> 100 µM
same,TGI,NCI-H23 lung,> 100 µM
same,TGI,SK-OV-3 ovarian,> 100 µM
same,TGI,MCF7 breast,> 100 µM
same,TGI,MDA-MB-435,31.1 µM
same,TGI,UACC-257 melanoma,48 µM
same,TGI,HCC-2998 colon,> 100 µM
same,TGI,NCI-H226 lung,> 100 µM
same,TGI,OVCAR-3 ovarian,87.7 µM
same,TGI,NCI-H460 lung,> 100 µM
same,TGI,HCT-15 colon,> 100 µM
same,TGI,CCRF-CEM leukemia,> 100 µM
same,TGI,A549 NSCLC,> 100 µM
same,TGI,NCI-H522 lung,> 100 µM
same,TGI,SNB-19 CNS,> 100 µM
same,TGI,SR leukemia,> 100 µM
same,TGI,HT29 colon,76.9 µM
same,TGI,K-562 leukemia,> 100 µM
same,TGI,HCT-116 colon,> 100 µM
same,TGI,SK-MEL-28 melanoma,> 100 µM
same,TGI,SF-268 CNS,> 100 µM
same,TGI,KM12 colon,> 100 µM
same,TGI,SN12C renal,> 100 µM
same,TGI,OVCAR-5 ovarian,> 100 µM
same,TGI,RXF 393 renal,88.2 µM
same,TGI,NCI/ADR-RES ovarian,99.5 µM
same,TGI,PC-3 prostate,> 100 µM
same,TGI,HOP-92 NSCLC,> 100 µM
same,TGI,HOP-62 NSCLC,> 100 µM
same,TGI,MALME-3M melanoma,50.9 µM
same,TGI,U251 CNS,> 100 µM
same,TGI,786-0 renal,> 100 µM
same,TGI,OVCAR-4 ovarian,> 100 µM
same,TGI,MOLT-4 leukemia,> 100 µM
same,TGI,RPMI-8226 leukemia,> 100 µM
same,TGI,EKVX NSCLC,> 100 µM
same,TGI,SK-MEL-5 melanoma,> 100 µM
same,TGI,COLO 205 colon,> 100 µM
same,TGI,SW-620 colon,> 100 µM
same,TGI,DU-145 prostate,> 100 µM
same,TGI,SF-539 CNS,> 100 µM
same,TGI,MDA-N,> 100 µM
same,TGI,M14 melanoma,55.9 µM
same,TGI,MDA-MB-231 breast,> 100 µM
same,TGI,T-47D breast,> 100 µM
same,TGI,TK-10 renal,> 100 µM
same,TGI,UACC-62 melanoma,> 100 µM
same,TGI,OVCAR-8 ovarian,> 100 µM
same,TGI,SF-295 CNS,> 100 µM
same,TGI,BT-549 breast,> 100 µM
same,TGI,SNB-75 CNS,> 100 µM
O=C(O)c1nnsc1-c1csnn1,TGI,IGROV1 ovarian,> 100 µM
same,TGI,HS 578T breast,> 100 µM
same,TGI,HL-60(TB) leukemia,> 100 µM
same,TGI,ACHN renal,> 100 µM
same,TGI,NCI-H23 lung,> 100 µM
same,TGI,A498 renal,> 100 µM
same,TGI,LOX IMVI melanoma,> 100 µM
same,TGI,SK-OV-3 ovarian,> 100 µM
same,TGI,MCF7 breast,> 100 µM
same,TGI,MDA-MB-435,> 100 µM
same,TGI,CAKI-1 renal,> 100 µM
same,TGI,UACC-257 melanoma,> 100 µM
same,TGI,NCI-H226 lung,> 100 µM
same,TGI,OVCAR-3 ovarian,> 100 µM
same,TGI,NCI-H460 lung,> 100 µM
same,TGI,HCT-15 colon,> 100 µM
same,TGI,CCRF-CEM leukemia,> 100 µM
same,TGI,A549 NSCLC,> 100 µM
same,TGI,NCI-H522 lung,> 100 µM
same,TGI,SNB-19 CNS,> 100 µM
same,TGI,SR leukemia,> 100 µM
same,TGI,HT29 colon,> 100 µM
same,TGI,SK-MEL-2 melanoma,> 100 µM
same,TGI,K-562 leukemia,> 100 µM
same,TGI,HCT-116 colon,> 100 µM
same,TGI,SK-MEL-28 melanoma,> 100 µM
same,TGI,SF-268 CNS,> 100 µM
same,TGI,KM12 colon,> 100 µM
same,TGI,SN12C renal,> 100 µM
same,TGI,OVCAR-5 ovarian,> 100 µM
same,TGI,RXF 393 renal,> 100 µM
same,TGI,NCI/ADR-RES ovarian,> 100 µM
same,TGI,PC-3 prostate,> 100 µM
same,TGI,HOP-92 NSCLC,> 100 µM
same,TGI,UO-31 renal,> 100 µM
same,TGI,HOP-62 NSCLC,> 100 µM
same,TGI,MALME-3M melanoma,> 100 µM
same,TGI,U251 CNS,> 100 µM
same,TGI,786-0 renal,> 100 µM
same,TGI,OVCAR-4 ovarian,> 100 µM
same,TGI,MOLT-4 leukemia,> 100 µM
same,TGI,RPMI-8226 leukemia,> 100 µM
same,TGI,EKVX NSCLC,> 100 µM
same,TGI,SK-MEL-5 melanoma,> 100 µM
same,TGI,COLO 205 colon,> 100 µM
same,TGI,SW-620 colon,> 100 µM
same,TGI,DU-145 prostate,> 100 µM
same,TGI,SF-539 CNS,> 100 µM
same,TGI,MDA-N,> 100 µM
same,TGI,M14 melanoma,> 100 µM
same,TGI,MDA-MB-231 breast,> 100 µM
same,TGI,T-47D breast,> 100 µM
same,TGI,TK-10 renal,> 100 µM
same,TGI,UACC-62 melanoma,> 100 µM
same,TGI,OVCAR-8 ovarian,> 100 µM
same,TGI,SF-295 CNS,> 100 µM
same,TGI,BT-549 breast,> 100 µM
same,TGI,SNB-75 CNS,> 100 µM
